Results reported in patent US11654196B2, “Dosing regimens for echinocandin class compounds” (priority 2012, dated 2023).
Where two headings read alike, the source gives them in different places. *1 amine or outer side, *2 acyl side, *3 side chain or, on linkers, in order; H or OH if unused. Where a SMILES comes first, the peptide text is derived from it. Bridges are numbered along the chain shown (N, C = ends). [ ]: non-standard residue; d: D form. The star is where a group is joined. pTerphenylCO(4''-OnC5H11) = CCCCCOc1ccc(-c2ccc(-c3ccc(C(=O)*)cc3)cc2)cc1; Orn(4R-OH,5R-OH) = O=C([C@H](C[C@@H](O)[C@@H](O)N[*:3])N[*:1])[*:2]; hTyr(3S-OH,4S-OH) = N[C@H](C(=O)O)[C@H](O)[C@@H](O)c1ccc(O)cc1; Pro(3S-OH,4S-Me) = C[C@H]1CN[C@H](C(=O)O)[C@H]1O; Hyp = O=C(O)[C@@H]1C[C@@H](O)CN1

Experiments:
[1] = Rabbit, literature values; cited from earlier work
[2] = Pharmacokinetics (oral bioavailability) following oral administration in beagle dogs; type: in vivo; parameters: key to Improvement (ratio of % oral bioavailability to saline): NI = no improvement in oral bioavailability in comparison to saline; settings: for % BA in saline: oral about 7-10 mg/kg, formulation 11 (saline); for % BA / Improvement (ratio of % oral bioavailability to saline): oral
Method: Echinocandin class compounds were administered to beagle dogs weighing approximately 6-10 kg. Each animal received the appropriate prepared test article in a single oral capsule dose at a target dose level of about 7-10 mg/kg. Immediately after dosing, each animal was offered 20 mL-30 mL of water orally (Groups 1-4) or 30 mL of water orally to assist in swallowing the capsule.
Animals were treated and blood samples were drawn and analyzed as provided in Example 1.
The bioavailability of each oral dose formulation was estimated by comparison to intravenous plasma concentration data in dogs from Example 1. The results provided in Table 3 show the oral bioavailability for the echinocandin class compound in saline (formulation 11), and the improvement over saline with the use of a formulation of the invention.

[3] = Dog, literature values; cited from earlier work
[4] = Man, literature values; cited from earlier work
[5] = Mouse, literature values; cited from earlier work
[6] = Rat, literature values; cited from earlier work
[7] = Pharmacokinetics in chimpanzee, oral dose; type: in vivo
Method: Pharmacokinetic studies were performed in six adult female chimpanzees. Two chimpanzees received 1-mg/kg IV dose of compound 22 formulated in 5% dextrose (60-minute infusion). Two chimpanzees received 10-mg/kg oral dose of compound 22 formulated in 5% citric acid (oral bolus). Two chimpanzees received 1-mg/kg IV dose of anidulafungin formulated as package label (5% dextrose, 60-minute infusion). Plasma samples were collected from all chimps for 10 days to 22 days. PK curves are depicted in FIGS. 16A, 16B, and 18. All pharmacokinetic calculations were performed using WinNonlin version 4.1 (Pharsight Corp) by noncompartmental analysis.

[8] = Circulating half-life in mouse; type: in vivo; settings: assays conducted by applicant
[9] = Dissolution profile of tableted formulation 17; type: physicochemical
Method: A dissolution study of the tablet of formulation 17 was performed using 500 mL of 100 mM Acetate Buffer pH 5.2 as the medium. The method utilized Apparatus 2 with a paddle speed of 50 rpm, a tablet sinker, and the run time was 60 minutes. […] The HPLC method was a gradient method using an Agilent Zorbax Bonus-RP column (250×4.6 mm) (column temperature of 60° C., wavelength of 300 nm, with Mobile Phase A=33 mM sodium pentanesulfonate pH 4.0 and Mobile Phase B=acetonitrile). The samples were injected neat with an injection volume of 15 μL.

[10] = Storage stability of solutions and lyophilized formulations (HPLC); type: physicochemical; settings: for Loss in potency: clear vial, ambient light, 4 months

CCCCCOc1ccc(-c2ccc(-c3ccc(C(=O)N[C@H]4C[C@@H](O)[C@@H](O)NC(=O)[C@@H]5[C@@H](O)[C@@H](C)CN5C(=O)[C@H]([C@@H](C)O)NC(=O)[C@H]([C@H](O)[C@@H](O)c5ccc(O)cc5)NC(=O)[C@@H]5C[C@@H](O)CN5C(=O)[C@H]([C@@H](C)O)NC4=O)cc3)cc2)cc1 [Anidulafungin, anidulafungin, reference compound] ({pTerphenylCO(4''-OnC5H11)}-[Orn(4R-OH,5R-OH)]T[Hyp][hTyr(3S-OH,4S-OH)]T[Pro(3S-OH,4S-Me)]; lactam 1-C)
Half-life [1]: 4 to 6 h | % BA in saline [2]: 7.80% | % BA ([2]; formulation 1): (14.3%) | Improvement (ratio of % oral bioavailability to saline) ([2]; formulation 1): 1.8 | Improvement (ratio of % oral bioavailability to saline) ([2]; formulation 2): NI | % BA ([2]; formulation 3): (9.80%) | Improvement (ratio of % oral bioavailability to saline) ([2]; formulation 3): 1.3 | Improvement (ratio of % oral bioavailability to saline) ([2]; formulation 4): NI^4 | % BA ([2]; formulation 5): (16.5%) | Improvement (ratio of % oral bioavailability to saline) ([2]; formulation 5): 2.1 | Improvement (ratio of % oral bioavailability to saline) ([2]; formulation 6): NI | Half-life [3]: 15 h | Half-life [4]: 24 to 26 h | Half-life [5]: 14 to 20 h | Half-life [6]: 18 h

CC(=O)[O-].CCCCCOc1ccc(-c2ccc(-c3ccc(C(=O)NC4CC(O)C(OCC[N+](C)(C)C)NC(=O)C5C(O)C(C)CN5C(=O)C(C(C)O)NC(=O)C(C(O)C(O)c5ccc(O)cc5)NC(=O)C5CC(O)CN5C(=O)C(C(C)O)NC4=O)cc3)cc2)cc1 (stereo not drawn) [Compound 22]
% BA in saline [2]: 3.50% | % BA ([2]; formulation 1): (8.21%) | Improvement (ratio of % oral bioavailability to saline) ([2]; formulation 1): 2.3 | % BA ([2]; formulation 3): (9.76%) | Improvement (ratio of % oral bioavailability to saline) ([2]; formulation 3): 2.8 | % BA ([2]; formulation 5): (12.3%) | Improvement (ratio of % oral bioavailability to saline) ([2]; formulation 5): 3.5 | % BA ([2]; formulation 7): (12.2%) | Improvement (ratio of % oral bioavailability to saline) ([2]; formulation 7): 3.5 | Improvement (ratio of % oral bioavailability to saline) ([2]; formulation 8): NI | Improvement (ratio of % oral bioavailability to saline) ([2]; formulation 9): NI | Improvement (ratio of % oral bioavailability to saline) ([2]; formulation 10): NI | Improvement (ratio of % oral bioavailability to saline) ([2]; formulation 12): NI | % BA ([2]; formulation 13): (8.80%) | Improvement (ratio of % oral bioavailability to saline) ([2]; formulation 13): 2.5 | % BA ([2]; formulation 14): (15.0%) | Improvement (ratio of % oral bioavailability to saline) ([2]; formulation 14): 4.3 | % BA ([2]; formulation 15): (13.4%) | Improvement (ratio of % oral bioavailability to saline) ([2]; formulation 15): 3.8 | % BA ([2]; formulation 16): (5.50%) | Improvement (ratio of % oral bioavailability to saline) ([2]; formulation 16): 1.5 | % BA ([2]; formulation 17): (11.8%) | Improvement (ratio of % oral bioavailability to saline) ([2]; formulation 17): 3.3 | Oral bioavailability ([7]; chimpanzees, 10-mg/kg oral bolus in 5% citric acid): 4.5% | Plasma half-life (PO) ([7]; chimpanzees, 10-mg/kg oral bolus in 5% citric acid, mean of 2 chimps): 99 h | Oral bioavailability used to calculate human circulating concentrations ([7]; values based upon chimpanzee studies): 5% | Half-life [8]: 44 to 71 h | % Compound 22 Dissolved ([9]; tablet of formulation 17, 100 mM acetate buffer pH 5.2, 5 minutes): 23% | % Compound 22 Dissolved ([9]; tablet of formulation 17, 100 mM acetate buffer pH 5.2, 10 minutes): 48% | % Compound 22 Dissolved ([9]; tablet of formulation 17, 100 mM acetate buffer pH 5.2, 15 minutes): 62% | % Compound 22 Dissolved ([9]; tablet of formulation 17, 100 mM acetate buffer pH 5.2, 30 minutes): 93% | % Compound 22 Dissolved ([9]; tablet of formulation 17, 100 mM acetate buffer pH 5.2, 45 minutes): 96% | % Compound 22 Dissolved ([9]; tablet of formulation 17, 100 mM acetate buffer pH 5.2, 60 minutes): 97% | Loss in potency ([10]; 5% Dextrose Solution (1.3 and 1.1 mg/mL) and 0.9% Sterile Saline Solution (1.3 mg/mL), room temperature): less than 5% | Loss in potency ([10]; accelerated aging at 40° C., 5% Dextrose, 20 mM Acetate Buffer pH 4.5, 20 mM Lactate pH 6.0 (3.3 mg/mL)): less than 5% | Stability upon storage ([10]; as a solid or in solution): commercially acceptable stability
